Here are results for 4 compounds from patent publication US20230084515A1, “THERAPEUTIC METHODS AND COMPOSITIONS FOR TREATING CANCER USING BRAF AND/OR MEK INHIBITOR COMBINATION THERAPY” (Vanderbilt University, priority 2020, published 2023).

The subject of one test is SC10. Put plainly: Proliferation assay (population growth curves, DIP rates) in SKMEL5 subline SC10. It counts as cell-based, human. The following applies: for effect of combination with BRAFi on proliferation (DIP rates): combination with PLX4720 8 μM. As for the experimental part: The cells are labeled lentivirally with a fluorescent, nuclear tag (Histone 2B monomeric Red Fluorescent Protein, H2BmRFP from AddGene), flow sorted for H2BmRFP positivity (top 10-15% brightest), and fluorescently counted under drug treatments. Cells are seeded into 96 well plates (1-5,000 cells per well) and drug treatments applied the following day, including DMSO or PBS control (all concentrations contained equal percentage of DMSO or PBS solvent). Images are taken every 8-12 hours with sufficient image alignment (montaging) in order to capture about 25-100 cells per well/treatment (over the course of the experiment, cell counts typically exceed 1,000 in DMSO or low drug concentration wells). Direct measurements of cell counts are made using Cellavista software and Image J macros. The images are filtered through these computer programs to track and label each cell, quantifying the number of cells in each time-stamped frame. Proliferation is platted as log2 normalized growth, using the initial cell count from the first image frame for normalization. Dose-response curves are generated using a 2-fold dilution of single drugs at various concentrations ranked highest to zero (zero containing only the solvent the drug was dissolved in, being either DMSO or H2O); all concentrations contained equal volumes of the solvent used. For combinations with PLX4720 (BRAF inhibitor), 8 μM PLX4720 was used as diluent, and serially diluted with the second drug from highest concentration to lowest. The drug-induced proliferation (DIP) rates (see, Harris, L. A., et al. “An unbiased metric of antiproliferative drug effect in vitro,” Nature Methods', 2016, vol. 13, p. 497-500.) are calculated using the slope of the log2-normalized population curves after 24 hrs. BRAF-mutated melanoma cells (SKMEL5, A375, WM793, SKMEL19, SKMEL28, WM164, WM88, A2058) were grown and cultured in Dulbecco's modified Eagle's medium and Ham's F-12 medium (DMEM:F12, 1:1. Cat #11330-032). Media were obtained from Gibco (Grand Island, N.Y.) and supplemented with 10% FBS, All cells were cultured in CO2, temperature-controlled (37° C.), and humidified incubators. Cells were tested for mycoplasma before use and confirmed negative. Cells were passaged 1-2× per week and maintained as exponentially growing cultures for a maximum of less than 2.0 passages. Unless otherwise indicated, cells were seeded 16-24 h prior to treatment to allow cells to adhere to culture plates. Reagents/drugs were prepared in complete medium immediately prior to adding to cells by replacement. PLX4720 (Cat #S1152) and vemurafenib (Cat #S1267) were obtained from Selleckchem (Houston, Tex.) solubilized in dimethyl sulfoxide (DMSO) at a stock concentration of 10 mM. […]

Another test deals with A2058 cells. The test is described as follows: Proliferation assay (population growth curves, DIP rates) in A2058 cells. It counts as cell-based, human. As for the experimental part:
The cells are labeled lentivirally with a fluorescent, nuclear tag (Histone 2B monomeric Red Fluorescent Protein, H2BmRFP from AddGene), flow sorted for H2BmRFP positivity (top 10-15% brightest), and fluorescently counted under drug treatments. Cells are seeded into 96 well plates (1-5,000 cells per well) and drug treatments applied the following day, including DMSO or PBS control (all concentrations contained equal percentage of DMSO or PBS solvent). Images are taken every 8-12 hours with sufficient image alignment (montaging) in order to capture about 25-100 cells per well/treatment (over the course of the experiment, cell counts typically exceed 1,000 in DMSO or low drug concentration wells). Direct measurements of cell counts are made using Cellavista software and Image J macros. The images are filtered through these computer programs to track and label each cell, quantifying the number of cells in each time-stamped frame. Proliferation is platted as log2 normalized growth, using the initial cell count from the first image frame for normalization. […] The drug-induced proliferation (DIP) rates (see, Harris, L. A., et al. “An unbiased metric of antiproliferative drug effect in vitro,” Nature Methods', 2016, vol. 13, p. 497-500.) are calculated using the slope of the log2-normalized population curves after 24 hrs. […]

The structures appear in SMILES notation.

In the case of `c1ccc2c(c1)[I+]c1ccccc1-2` [DPI, Diphenyleneiodonium chloride], the “effect of combination with BRAFi on proliferation (DIP rates)” value (shortened to “effect of combination with BRAFi”) was “synergism” with SC10 and “enhancement of NOX-inhibition on the anti-proliferative effects of BRAF-inhibition” in the test on A2058 cells (DPI 250 nM, BRAFi 8 μM, FIG. 6A).

Consider `CCCS(=O)(=O)Nc1ccc(F)c(C(=O)c2c[nH]c3ncc(Cl)cc23)c1F` [PLX4720], for which the “DIP rates under BRAF-inhibition” value in the test on SC10 and with A2058 cells was “positive DIP rates” throughout.

As to `CN(C)c1cccc(-c2c3c(=O)n(-c4ccccc4Cl)[nH]c3cc(=O)n2C)c1` [GKT137831], in the test with SC10, the “effect of combination with BRAFi” value is given as “synergism”.

For `COc1cc(C(C)=O)ccc1O` [Apocynin], in the test with SC10, the “effect of combination with BRAFi” value is listed as “synergism”.
